In article PMC9081605, “A High-Throughput Toxicity Screen of 42 Per- and Polyfluoroalkyl Substances (PFAS) and Functional Assessment of Migration and Gene Expression in Human Placental Trophoblast Cells” (Frontiers in Toxicology, 2022):
“Also recorded” adds a separate entry of the source.

How the values were obtained:
Type in all cases: cell-based, human
[1] = test system: JEG-3 cells; assay: Mitochondrial membrane potential, JC-10 assay (HTTS)
Excerpt: (§1) JEG-3 human choriocarcinoma trophoblastic cells (American Type Culture Collection, VA, United States) were maintained in sterile-filtered Minimum Essential Media (MEM) supplemented with L-glutamine and phenol red (Thermo Fisher Scientific, MA, United States), 10% (v/v) heat-inactivated BenchMark Fetal Bovine Serum (Gemini Bio, CA, United States), 1% (v/v) sodium pyruvate (Thermo Fisher Scientific, MA, United States), and 1% (v/v) penicillin streptomycin (Sigma Aldrich, MO, United States). Cells were maintained in an incubator at 37°C with 5% CO2. JEG-3 cells were cultured in 10 cm tissue culture plates and cell passage numbers were recorded.
(§2) A total of 42 perfluoroalkyl substances (PFAS) were evaluated (Supplementary Table S1 contains source and purity). PFAS stock solutions were maintained in 100% methanol as previous work has shown certain PFAS degrade when stored in dimethyl sulfoxide (DMSO; [Gaballah et al., 2020]). […] The vehicle control group consisted of 97.5% media + 2.5% methanol to match the concentration of methanol in the media at the highest PFAS concentration tested (500 µM). Menadione (50–500 µM) was used as a positive control for cytotoxicity assessment. PFAS were de-identified and assigned random numbers to eliminate bias. Chemical exposure plate maps were designed so that all experimental conditions were tested in at least technical duplicates per plate. The outer edges of each plate received media alone and were excluded from all analyses to avoid edge effects. Each plate map included 14 technical replicates of the vehicle control group and 14 technical replicates of media only. Biological replicates were defined as separate 384 well plates tested on separate days using different cell passages. The experimental workflow is depicted in Supplementary Figure S1.
(§3) JEG-3 cells were counted using a Z2 Coulter Particle Counter (Beckman Coulter, CA, United States) and seeded at a density of 2,500 cells per well in black-walled, clear bottom 384 well plates (Corning, #3764) and allowed to adhere overnight. Approximately 24 h later, 384 well plates were imaged using an IncuCyte Zoom live cell imager (Essen BioScience Inc., MI, United States) to obtain baseline cellular confluence measurements prior to chemical dosing (0 h). Media was removed from wells and replaced with fresh media containing chemical treatments (exposure media) using a Viaflo liquid handling device (Integra Biosciences, NH, United States). Within 30 min of exposure media application, plates were again imaged for cellular confluence using the IncuCyte Zoom. Plates were incubated with exposure media for 24 h and then imaged again using the IncuCyte Zoom (24 h).
The JC-10 assay (Enzo Life Sciences, NY, United States) was used to evaluate mitochondrial membrane potential, the main bioenergetic parameter that regulates respiratory rate, ATP synthesis and reactive oxygen species generation. In cells with polarized mitochondrial membranes, the JC-10 dye localizes to the mitochondrial matrix and forms red fluorescent aggregates (540/590 nm). In cells with depolarized mitochondrial membranes, the JC-10 dye localizes in the cytoplasm and converts to a green fluorescent monomer (490/525 nm). Mitochondrial membrane potential was calculated as the ratio of the green and red fluorescence intensities within a well.
At the end of the 24 h exposure period, exposure media was removed from the plate. The plate wells were then washed with 1x phosphate buffered saline (1x PBS). After washing, the JC-10 reagent was suspended in fresh 1x PBS and 20 µl was added to each well at a final concentration of 20 μM (Enzo Life Sciences, NY, United States). The plate was incubated for 1 h at 37°C, and the fluorescence intensities at excitation/emission wavelengths of 490/525 nm and 540/590 nm were measured using a CLARIOstar (BMG Labtech, Offenburg, Germany) plate reader, respectively.
HTTS data were analyzed using a custom data analysis script in R v 1.2.5019 ([R Core Team, 2019]). […]

[2] = test system: JEG-3 cells; assay: Proliferation, change in confluence 0-24 h (IncuCyte Zoom, HTTS); conditions: for Prolif ↑, lowest concentration at which the mean response value exceeded the mean control value ± 2*SD (rough binning): increase; for cellular proliferation relative to vehicle control (rough binning): after 24 h, in at least one concentration
Excerpt: as §1, §2, §3
Plate well bottom images were evaluated using automated cell masking. The automated cell masking program was developed using IncuCyte Zoom base software. Cell masking parameters were defined using a training set of JEG-3 cell images obtained prior to conducting the experiments and following IncuCyte Zoom software recommendations. Briefly, the training images were obtained from cell culture plates with varying levels of JEG-3 cellular confluence (ranging from ∼15% confluent to ∼95% confluent). Parameters for the automated cell masking were first manually set by an experimenter for 3-6 images of low (∼15–30%), medium (∼30–70%), and high confluence (∼70% or greater). The training images were then evaluated by the automated masking program and manually checked to ensure the parameters were sufficiently strict to ignore background (e.g., blank space on the plate well bottom) but adequately sensitive to detect cell borders. The masking program was then implemented on the experimental plates to obtain a baseline cellular confluence measurement at 0 h and a second confluence measurement at 24 h. […]

[3] = test system: JEG-3 cells; assay: CellTiter-Glo luminescent cell viability assay (HTTS); conditions: for cell viability relative to vehicle control (rough binning): after 24 h, in at least one concentration
Excerpt: as §1, §2, §3
In the same plate evaluated for mitochondrial membrane potential, cell viability measures were duplexed using the CellTiter-Glo (CTG) Luminescent Cell Viability Assay (Promega, WI, United States). CTG reagent was added to each well at a volume of 20 µl. The plate was left at room temperature to incubate for 5 min and then 20 µl from each well was transferred to a low-volume, round-bottom, white 384 well plate (Corning, NY, United States). The CTG reagent lyses cellular and mitochondrial membranes and binds to adenosine triphosphate (ATP) released by cells, which produces a luminescence signal. The intensity of the luminescence was considered a proxy measure for the number of live cells in a well. The luminescence intensities were measured using the CLARIOstar plate reader.
HTTS data were analyzed using a custom data analysis script in R v 1.2.5019 ([R Core Team, 2019]). Briefly, raw data points corresponding to the confluence measurements at 0 and 24 h, the fluorescence intensities corresponding to MMP, and the relative luminescence units (RLU) corresponding to cell viability were imported directly from Microsoft Excel into the R programming environment, RStudio. Separate plates run on separate days using different JEG-3 passages were considered as biologic replicates. […]

[4] = JEG-3 cells, 24 h exposure, four-parameter fit, estimates meeting inclusion criteria, read-out: MMP EC50 ± SD
[5] = JEG-3 cells, 24 h exposure, four-parameter fit, estimates meeting inclusion criteria, read-out: Proliferation EC50 ± SD
[6] = JEG-3 cells, 24 h exposure, four-parameter fit, estimates meeting inclusion criteria, read-out: Viability EC50 ± SD

In the case of `O=C(O)CCC(F)(F)C(F)(F)C(F)(F)C(F)(F)C(F)(F)F` [2H,2H,3H,3H-Perfluorooctanoic acid], the EC50 ([1]; JEG-3 cells, raw model output including fits that did not meet inclusion criteria, read-out: MMP EC50 ± SD (raw values)) is reported as 71780 ± 10 µM, the “Prolif ↑, lowest concentration at which the mean response value exceeded the mean control value ± 2*SD (rough binning)” value ([2]; JEG-3 cells, 24 h) is reported as 50 µM and the EC50 ([2]; JEG-3 cells, raw model output including fits that did not meet inclusion criteria, read-out: Proliferation EC50 ± SD (raw values)) is reported as 951 ± 671 µM. The “cellular proliferation relative to vehicle control (rough binning)” value [2] was “increased cellular proliferation” and the “cell viability relative to vehicle control (rough binning)” value [3] was “increased cell viability”.

`O=P(O)(OCCC(F)(F)C(F)(F)C(F)(F)C(F)(F)C(F)(F)C(F)(F)F)OCCC(F)(F)C(F)(F)C(F)(F)C(F)(F)C(F)(F)C(F)(F)F` [6:2 Fluorotelomer phosphate diester] gave an EC50 ([1]; Homo sapiens, JEG-3, read-out: MMP EC50 ± SD (raw values), JEG-3 cells, raw model output including fits that did not meet inclusion criteria) of 64402 ± 10 µM, a minimal effective concentration ([2]; Homo sapiens, JEG-3, 24 h, read-out: Prolif ↓, lowest concentration at which the mean response value exceeded the mean control value ± 2*SD (rough binning)) of 188 µM and an EC50 ([2]; Homo sapiens, JEG-3, 24 h, read-out: Proliferation EC50 ± SD, JEG-3 cells, 24 h exposure, four-parameter fit, estimates meeting inclusion criteria) of 142 ± 39.2 µM. For the same compound, the EC50 ([2]; Homo sapiens, JEG-3, 24 h, read-out: proliferation EC50 ± SE, JEG-3 cells, 24 h) was 142 ± 39.4 µM, the “Prolif ↑, lowest concentration at which the mean response value exceeded the mean control value ± 2*SD (rough binning)” value ([2]; JEG-3 cells, 24 h) was 37.5 µM and the “cellular proliferation relative to vehicle control (rough binning)” value [2] was “reduced cellular proliferation; also recorded: increased cellular proliferation”. The “Viability ↑, lowest concentration at which the mean response value exceeded the mean control value ± 2*SD (rough binning)” value ([3]; JEG-3 cells, 24 h, increase) was 112.5 µM and the “cell viability relative to vehicle control (rough binning)” value [3] was “increased cell viability”.

`O=P(O)(O)OCCC(F)(F)C(F)(F)C(F)(F)C(F)(F)C(F)(F)C(F)(F)F` [6:2 Fluorotelomer phosphate monoester] was tested, and the EC50 [1, 4] was 248 ± 62.1 µM, the EC50 ([2]; JEG-3 cells, 24 h, read-out: proliferation EC50 ± SE) was 193 ± 4 µM and the EC50 [2, 5] was 193 ± 3.8 µM. For the same compound, the EC50 ([3]; JEG-3 cells, 24 h, read-out: viability EC50 ± SE) was 183 ± 22 µM and the EC50 [3, 6] was 183 ± 21.7 µM.

`O=C(O)C(F)(F)C(F)(F)C(F)(F)C(F)(F)C(F)(F)C(F)(F)C(F)F` [8-H-Perfluorooctanoic acid] gave an EC50 [1, 4] of 147 ± 27.1 µM, an EC50 [2, 5] of 441 ± 18.1 µM and an EC50 [3, 6] of 318 ± 183 µM.

With `O=P(O)(OCCC(F)(F)C(F)(F)C(F)(F)C(F)(F)C(F)(F)C(F)(F)C(F)(F)C(F)(F)F)OCCC(F)(F)C(F)(F)C(F)(F)C(F)(F)C(F)(F)C(F)(F)C(F)(F)C(F)(F)F` [8:2 Fluorotelomer phosphate diester] the “MMP ↓, lowest concentration at which the mean response value exceeded the mean control value ± 2*SD (rough binning)” value ([1]; JEG-3 cells, 24 h, decrease) was 350 µM, the “MMP relative to vehicle control (rough binning)” value ([1]; after 24 h, in at least one concentration) was “reduced MMP” and the “Prolif ↓, lowest concentration at which the mean response value exceeded the mean control value ± 2*SD (rough binning)” value ([2]; JEG-3 cells, 24 h, decrease) was 100 µM. For the same compound, the “cellular proliferation relative to vehicle control (rough binning)” value [2] was “reduced cellular proliferation”, the “Viability ↓, lowest concentration at which the mean response value exceeded the mean control value ± 2*SD (rough binning)” value ([3]; JEG-3 cells, 24 h, decrease) was 50 µM and the “cell viability relative to vehicle control (rough binning)” value [3] was “reduced cell viability”.

`O=P(O)(O)OCCC(F)(F)C(F)(F)C(F)(F)C(F)(F)C(F)(F)C(F)(F)C(F)(F)C(F)(F)F` [8:2 Fluorotelomer phosphate monoester] showed an EC50 [1, 4] of 312 ± 29.8 µM, an EC50 [2, 5] of 251 ± 37.6 µM and an EC50 [3, 6] of 360 ± 30.3 µM.
